In the test the target is CXCL12 (Homo sapiens, UniProt P48061). As to the kind of experiment: 1H-15N HSQC NMR titration of […]-CXCL12 (global fit of eight resonances, pH […]); supported by SEC-MALS. The class given is binding. Background: Size exclusion chromatography separates by hydrodynamic size, large species first.

Structures are written as SMILES. pKd: −log10 of the molar value.

Chain of CXCL12 (P48061 22-88): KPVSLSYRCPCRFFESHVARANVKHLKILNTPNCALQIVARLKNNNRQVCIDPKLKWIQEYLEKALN

With `O=C(O)c1ccccc1OP(=O)(O)O` [fosfosal, 2-(phosphonooxy) benzoic acid], the negative logarithm of the Kd (pKd) is 3.83.

The term pKd denotes the negative decadic logarithm of the Kd, by convention in mol/L.

The record behind these values is publication PMC7378375, “High-Throughput Screening of a Functional Human CXCL12-CXCR4 Signaling Axis in a Genetically Modified S. cerevisiae: Discovery of a Novel Up-Regulator of CXCR4 Activity” (Frontiers in Molecular Biosciences, 2020).
